By inhibition is commonly meant how much of the control response was suppressed.

In patent US10940139B2, “Compounds that interact with the Ras superfamily for the treatment of cancers, inflammatory diseases, rasopathies, and fibrotic disease” (Shy Therapeutics LLC, priority 2017, dated 2021) one finds inhibition data, which are given here for 56 molecules.

SMILES strings stand for the structures.

Test [1] has as its system TNFα production in RAW 264.7 macrophage cell line. Briefly: Mouse TNF alpha quantification assay (LPS-stimulated macrophages, ELISA). The following applies: RAW264.7, RAW 264.7 murine leukemia virus transformed macrophage cell lines, LPS stimulation, read-out: TNF-α % Inhibition at 30 μM. It is filed as cell-based.
Test [2] has as its system IL6 production in RAW 264.7 macrophage cell line. Briefly: Mouse IL6 quantification assay (LPS-stimulated macrophages, ELISA). Type of test: cell-based. The following applies: RAW264.7, RAW 264.7 murine leukemia virus transformed macrophage cell lines, LPS stimulation, read-out: IL-6 % Inhibition at 30 μM.

For `Cc1sc2c(O)nc(-c3nccn3C)nc2c1-c1cccc(C(F)(F)F)c1` [drawing 2426], the inhibition at 30 µM in test [1] and in test [2] was 0% in each case.
`CCN(CC)C(=O)c1sc2[nH]c(-c3ccccn3)nc(=O)c2c1C` [drawing 2029]: the inhibition at 30 µM in test [1] and in test [2] was 1 to 25% throughout.
As to `O=C(Nc1nnc(-c2ccccn2)[nH]1)C1Cc2ccccc2O1` (stereo not shown) [drawing 1965], the inhibition at 30 µM in test [1] is 0%; in test [2] it was 1 to 25%.
For `COCCN(C)c1nc(-c2nccn2C)nc2sc(-c3ccccc3)c(-c3ccccc3)c12` [drawing 2393], in that order: 76 to 100% and 76 to 100%.
On the same counts, the results for `Cc1sc2c(N)nc(-c3ccccn3)nc2c1-c1ccccc1` [drawing 2230] are 1 to 25% and 51 to 75%.
For `O=C(CC1CCCC1)NCC(=O)Nc1nnc(-c2ccccn2)[nH]1` [drawing 1962], in that order: 1 to 25% and 1 to 25%.
Consider `COc1nc(-c2ccccn2)nc2c(C3CCC3)csc12` [drawing 2318], for which the inhibition at 30 µM in test [1] and in test [2] was 1 to 25% each time.
As to `COC(=O)c1c(C)sc2c(N)nc(-c3ccccn3)nc12` [drawing 2335], the inhibition at 30 µM lay in the range of 1 to 25% in test [1] and 76 to 100% in test [2].
On the same counts, the results for `Oc1nc(-c2ccccn2)nc2c(-c3ccc(OC4CCCCC4)cc3)csc12` [drawing 2279] are 76 to 100% and 76 to 100%.
For `O=C(c1csc2c(O)nc(-c3ccccn3)nc12)N1CCN(c2ccc(F)cc2F)CC1` [drawing 2185], in that order: 0% and 76 to 100%.
On to `O=C(Nc1nnc(-c2ccccn2)[nH]1)c1ccc(CN2C(=O)CCC2=O)cc1` [drawing 1950], for which the figures for the inhibition at 30 µM in test [1] and in test [2] were 1 to 25% and 0%, respectively.
On the same counts, the results for `O=C(c1csc2c(O)nc(-c3ccccn3)nc12)N1CCC(c2ccncc2)C1` (stereo not shown) [drawing 2232] are 1 to 25% and 76 to 100%.
For `Nc1nc(O)c2scc(-c3ccccc3)c2n1` [drawing 2118], the inhibition at 30 µM in test [1] is 0%; in test [2], 1 to 25%.
For `COc1ccccc1C1CN(C(=O)c2csc3c(O)nc(-c4ccccn4)nc23)CCN1` (stereo not shown) [drawing 2196], in that order: 0% and 26 to 50%.
On the same counts, the results for `O=C(Nc1nc(-c2ccccn2)cs1)c1ccccn1` [drawing 2014] are 1 to 25% and 51 to 75%.
In the case of `Oc1nc(-c2ccccn2)nc2c(-c3cc(F)cc(F)c3)csc12` [drawing 2292], the inhibition at 30 µM in test [1] was 51 to 75%; in test [2], 76 to 100%.
For `O=C(CCCc1cccnc1)N1CCCc2c(O)nc(-c3ccccn3)nc21` [drawing 2088], in that order: 1 to 25% and 76 to 100%.
For `COCCNc1nc(-c2nccn2C)nc2sc(-c3ccccc3)c(-c3ccccc3Cl)c12` [drawing 2407], in that order: 1 to 25% and 51 to 75%.
For `O=C(c1csc2c(O)nc(-c3ccccn3)nc12)N1CCC(c2cccc(O)c2)C1` (stereo not shown) [drawing 2233], in that order: 26 to 50% and 76 to 100%.
`O=C(Nc1nnc(-c2ccccn2)[nH]1)C1CCCN(c2ncccn2)C1` (stereo not shown) [drawing 1969]: the figures for the inhibition at 30 µM in test [1] and in test [2] were 1 to 25% and 0%, respectively.
On the same counts, the results for `O=C(Nc1nc(-c2ccccn2)cs1)c1ccc(F)cc1` [drawing 2020] are 26 to 50% and 26 to 50%.
For `O=C(CN1CCN(c2nc(-c3ccccn3)nc3scc(-c4ccccc4)c23)CC1)NC1CC1` [drawing 2158], in that order: 26 to 50% and 76 to 100%.
On the same counts, the results for `O=C(c1csc2c(O)nc(-c3ccccn3)nc12)N1CCN(c2ccncc2)CC1` [drawing 2108] are 0% and 1 to 25%.
As to `Cc1cccc(CN(Cc2ccccn2)Cc2nccn2C)c1` [drawing 2048], the results for the inhibition at 30 µM in test [1] and in test [2] were 1 to 25% and 26 to 50%, respectively.
In the case of `Cn1cc(C2CC2C(=O)Nc2nnc(-c3ccccn3)[nH]2)cn1` (stereo not shown) [drawing 1932], the inhibition at 30 µM in test [1] was 1 to 25%; in test [2] it was 0%.
For `O=C(Nc1nc(-c2ccccn2)cs1)c1ccc2nccnc2c1` [drawing 2011], in that order: 0% and 51 to 75%.
With `O=c1nc(-c2ccccn2)[nH]c2scc(-c3cccs3)c12` [drawing 2024], the inhibition at 30 µM in test [1] was 1 to 25%; in test [2], 0%.
As to `O=C(c1csc2c(O)nc(-c3ccccn3)nc12)N1CCOC(c2cccc(F)c2)C1` (stereo not shown) [drawing 2170], the figures for the inhibition at 30 µM in test [1] and in test [2] were 1 to 25% and 26 to 50%, respectively.
On the same counts, the results for `CC(CC(=O)N1CCOCC1)c1nc(-c2ccccn2)nc2scc(-c3ccccc3)c12` (stereo not shown) are 1 to 25% and 1 to 25%.
For `COCCCC1CCN(C(=O)c2csc3c(O)nc(N)nc23)CC1` [drawing 2092], in that order: 1 to 25% and 0%.
`Oc1cccc(-c2csc3c(O)nc(-c4ccccn4)nc23)n1` [drawing 2320]: the results for the inhibition at 30 µM in test [1] and in test [2] were 0% and 51 to 75%, respectively.
On the same counts, the results for `CC(C)c1noc(CCCC(=O)Nc2nnc(-c3ccccn3)[nH]2)n1` [drawing 1951] are 1 to 25% and 0%.
On the same counts, the results for `Cc1noc(C)c1CC(=O)Nc1nnc(-c2ccccn2)[nH]1` [drawing 1957] are 0% and 1 to 25%.
Consider `CC(C)(C)c1nc(C(=O)Nc2nnc(-c3ccccn3)[nH]2)cs1` [drawing 1991], for which the inhibition at 30 µM in test [1] was 0%; in test [2], 1 to 25%.
Consider `Oc1nc(-c2ccccn2)nc2c(-c3ccc(OC4CCCC4)cc3)csc12` [drawing 2255], for which the inhibition at 30 µM in test [1] is 0%; in test [2], 76 to 100%.
On the same counts, the results for `COC(C)(C)c1ccc(-c2csc3c(O)nc(-c4nccn4C)nc23)cc1` [drawing 2445] are 0% and 26 to 50%.
`COc1ccc(C2CN(C(=O)c3csc4c(O)nc(-c5ccccn5)nc34)CCN2)cc1` (stereo not shown) [drawing 2198]: the inhibition at 30 µM in test [1] is 0%; in test [2], 51 to 75%.
`CCOC(=O)NC1CCN(C(=O)c2csc3c(O)nc(-c4ccccn4)nc23)CC1` [drawing 2112]: the inhibition at 30 µM in test [1] is 0%; in test [2], 51 to 75%.
For `O=C(c1csc2c(O)nc(-c3ccccn3)nc12)N1CCNC(Cc2ccccc2)C1` (stereo not shown) [drawing 2202], the values for the inhibition at 30 µM in test [1] and in test [2] were 1 to 25% and 76 to 100%, respectively.
For `COc1cc(-c2csc3c(O)nc(-c4ccccn4)nc23)cnc1C(F)(F)F` [drawing 2276], in that order: 1 to 25% and 51 to 75%.
For `COCCNc1nc(-c2cccc(N)n2)nc2sc(-c3ccccc3)c(-c3ccccc3)c12` [drawing 2418], in that order: 26 to 50% and 26 to 50%.
For `Cc1cnc(-c2ccccn2)nc1NC(=O)Cc1ccc2cnccc2c1` [drawing 2249], the inhibition at 30 µM in test [1] was 0%; in test [2] it was 76 to 100%.
On the same counts, the results for `CNC(=O)c1ccc(-c2csc3c(O)nc(-c4ccccn4)nc23)cc1C` [drawing 2277] are 0% and 26 to 50%.
Turning to `O=C(Cc1ccc2c(c1)OCCO2)Nc1nnc(-c2ccccn2)[nH]1` [drawing 1997], the inhibition at 30 µM was 1 to 25% in test [1] and 0% in test [2].
Consider `Oc1nc(-c2ccccn2)nc2c(C3CCC3)csc12` [drawing 2316], for which the inhibition at 30 µM in test [1] and in test [2] was 76 to 100% in each case.
Consider `O=C(c1csc2c(O)nc(-c3ccccn3)nc12)N1CCNC(Cc2ccc(F)cc2)C1` (stereo not shown) [drawing 2224], for which the results for the inhibition at 30 µM in test [1] and in test [2] were 1 to 25% and 26 to 50%, respectively.
`COCCNc1nc(-c2nccn2C)nc2sc(-c3ccncc3)c(-c3ccccc3)c12` [drawing 2409]: the inhibition at 30 µM in test [1] was in the range of 51 to 75%; in test [2], 76 to 100%.
With `OC1CCN(c2nc(-c3ccccn3)nc3scc(-c4ccccc4)c23)CC1` [drawing 2156], the inhibition at 30 µM in test [1] lay in the range of 1 to 25%; in test [2] it was 26 to 50%.
On the same counts, the results for `O=C(Nc1nnc(-c2ccccn2)[nH]1)C1CCCN(c2cnccn2)C1` (stereo not shown) [drawing 1979] are 1 to 25% and 1 to 25%.
On the same counts, the results for `c1ccc(-c2nc(NCC3CCCO3)c3ccsc3n2)nc1` (stereo not shown) [drawing 2129] are 1 to 25% and 51 to 75%.
As to `O=C(c1cc2nc(-c3ccccn3)nc(O)c2s1)N1CCN(c2ccccc2)CC1` [drawing 2234], the inhibition at 30 µM in test [1] was 0%; in test [2], 26 to 50%.
For `COC(=O)c1cccc(CN2CCC(CSc3ccccc3)C2)c1C#N` (stereo not shown) [drawing 2046], in that order: 0% and 26 to 50%.
For `N#CCc1ccc(OCC(=O)Nc2nnc(-c3ccccn3)[nH]2)cc1` [drawing 1998], in that order: 1 to 25% and 0%.
With `O=C(c1csc2c(O)nc(-c3ccccn3)nc12)N1CCOC(c2ccccc2Cl)C1` (stereo not shown) [drawing 2194], the values for the inhibition at 30 µM in test [1] and in test [2] were 1 to 25% and 76 to 100%, respectively.
For `CC(C)c1noc(CCC(=O)Nc2nnc(-c3ccccn3)[nH]2)n1` [drawing 1952], in that order: 0% and 1 to 25%.
For `O=C(CN1CCN(c2nc(-c3ccccn3)nc3scc(-c4ccccc4)c23)CC1)N1CCCC1` [drawing 2157], in that order: 1 to 25% and 1 to 25%.
